Earlier results, collected in patent US7645767B2, “Pharmaceutical compositions for treating chronic pain and pain associated with neuropathy” (Trinity Laboratories, Inc., priority 2006, dated 2010).

Assays:
[1] = for accumulation during multiple dose treatment: multiple dose treatment with tramadol
μ-opiate receptors = μ-opiate receptors (Homo sapiens, UniProt P35372)
[2] = test system: complex regional pain syndrome and neuropathic pain

Sequence of μ-opiate receptors (P35372 whole entry): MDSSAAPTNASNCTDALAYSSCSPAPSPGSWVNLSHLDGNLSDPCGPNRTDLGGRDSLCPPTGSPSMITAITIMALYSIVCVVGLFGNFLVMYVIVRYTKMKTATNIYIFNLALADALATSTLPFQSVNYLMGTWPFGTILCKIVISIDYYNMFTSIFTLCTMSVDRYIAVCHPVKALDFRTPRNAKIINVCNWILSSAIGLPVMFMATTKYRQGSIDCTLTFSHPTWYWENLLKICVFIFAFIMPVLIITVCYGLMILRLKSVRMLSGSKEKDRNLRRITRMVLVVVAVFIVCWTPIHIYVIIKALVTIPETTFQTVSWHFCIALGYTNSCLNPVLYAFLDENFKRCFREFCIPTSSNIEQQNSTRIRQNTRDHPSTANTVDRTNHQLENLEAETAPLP

SMILES	duration of the analgesic effect (analgesic effect; after a single oral dose of tramadol 100 mg)	time to peak serum concentrations ([1]; after oral administration) [h]	accumulation during multiple dose treatment [1]	affinity for μ-opiate receptors, fold less than codeine (μ-opiate receptors; relative to codeine) [fold]	affinity for μ-opiate receptors, fold less than d-propoxyphene (μ-opiate receptors; relative to d-propoxyphene) [fold]	affinity for μ-opiate receptors compared with dextromethorphan (μ-opiate receptors; relative to dextromethorphan)	affinity for μ-opiate receptors, fold less than morphine (μ-opiate receptors; relative to morphine)	analgesic potency compared with parent drug (analgesic effect; relative to tramadol)	half-life ([1]; after a single oral dose of 100 mg tramadol, 2-compartmental elimination) [h]	duration of sustained analgesia ([2]; capsaicin concentration 5-10% under regional anesthesia) [weeks]	dropout rates due to burning pain at the site of application ([2]; topical capsaicin trials) [%]	absorption in the jejunum (oral dosing of rats, after 3 hours) [%]	time to distribution to brain, spinal cord, liver and blood (rats, i.v. administration) [min]
COc1cccc(C2(O)CCCCC2CN(C)C)c1 (racemic) [tramadol, (+/−)-trans (RR,SS)-2-[(dimethylamino)methyl]-1-(3-methoxyphenyl)cyclohexanol]	about 6 hours	≤ 2	approximately 2 fold	10	100	equivalent	6,000 fold	–	–	–	–	–	–
CN(C)C[C@H]1CCCC[C@]1(O)c1cccc(O)c1 [O-desmethyltramadol]	–	–	approximately 2 fold	–	–	–	–	at least twice	9	–	–	–	–
COc1cc(CNC(=O)CCCCC=CC(C)C)ccc1O [capsaicin, 8-methyl-N-vanillyl-6-nonenamide]	–	–	–	–	–	–	–	–	–	1 to 8	33 to 67	85	≤ 20
